Assay results published in patent US12624368B2 (priority 2018, dated 2026).
≈ marks a conversion by molar mass, not a printed value. Entries after “also recorded” stand apart in the source; their conditions may differ. Where two headings read alike, the source gives them in different places. Where a SMILES comes first, the peptide text is derived from it.

Assays:
[1] = tested on: HA mediated membrane fusion; details: pH 5
in vitro [2] = details: human
A(H1N1)pdm09 virus [3] = type: cell-based, influenza A virus A(H1N1)pdm09
A(H7N7) virus [4] = details: 1 h
in vitro [5] = details: dog
[6] = tested on: endosomal acidification in MDCK cells; type: cell-based, canine
A(H1N1)pdm09 virus [7] = details: 1 h
A(H7N7) virus [8] = tested on: A(H7N7) virus; design: species or system BALB/c mice; details: mouse, in vivo
endosomal acidification = details: cited from earlier work
A(H1N1)pdm09 virus [9] = tested on: A(H1N1)pdm09 virus; design: species or system BALB/c mice; details: in vivo
[10] = tested on: A(H7N7) and A(H1N1)pdm09 virus; type: cell-based, influenza A virus; details: 0-8,000 nM
293T cells = type: cell-based, human
mouse lungs = details: in vivo
[11] = MDCK cells, P1 25.0 μg ml^−1, TAT-P1 3.1 μg ml^−1, bafilomycin A1 100.0 nM, PA1 25.0 μg ml^−1

Which HA-mediated membrane fusion [1] does the source give for `CC[C@H](C)[C@H](NC(=O)[C@H](CCC(N)=O)NC(=O)[C@H](CCCNC(=N)N)NC(=O)[C@H](Cc1ccccc1)NC(=O)[C@H](C)NC(=O)[C@@H](NC(=O)[C@@H]1CCCN1C(=O)[C@H](CS)NC(=O)[C@@H]1CCCN1C(=O)CNC(=O)[C@H](Cc1c[nH]c2ccccc12)NC(=O)[C@@H](N)CS)[C@@H](C)O)C(=O)NCC(=O)N[C@@H](CC(N)=O)C(=O)N[C@@H](CS)C(=O)NCC(=O)N[C@@H](CCCNC(=N)N)C(=O)N[C@@H](Cc1ccccc1)C(=O)N[C@@H](CCCNC(=N)N)C(=O)N[C@H](C(=O)N[C@@H](CCCNC(=N)N)C(=O)N[C@@H](CS)C(=O)N[C@@H](CS)C(=O)N[C@@H](CCCNC(=N)N)C(=O)N[C@H](C(=O)N[C@@H](CCCNC(=N)N)C(=O)O)[C@@H](C)CC)C(C)C` [P1] (H-CWGPCPTAFRQIGNCGRFRVRCCRIR-OH) here?
Its HA-mediated membrane fusion is “did not inhibit HA-mediated membrane fusion”.

And the CC50 (in vitro [2])?
Its CC50 is over 400 mg/L.

What about the “viral RNP release into the nuclei” value (A(H1N1)pdm09 virus [3]) of the same compound?
The value was “blocked viral RNP release into the nuclei”.

What about the “IC50 (H7N7)” value (A(H7N7) virus [4]) of the same compound?
Its value is 1.56 mg/L (≈ 0.51 µM).

What about the CC50 (in vitro [5]) of the same compound?
The CC50 was over 400 mg/L.

What about the “viral replication in 293T cells (viral titers by plaque assay)” value (H7N7 virus) of the same compound?
The value was “could significantly inhibit viral replication”.

And the endosomal acidification [6]?
The endosomal acidification was “prevented endosomal acidification”.

What does the source list for `N=C(N)NCCC[C@H](NC(=O)[C@H](CCCNC(=N)N)NC(=O)[C@H](CCCNC(=N)N)NC(=O)[C@H](CCC(N)=O)NC(=O)[C@H](CCCNC(=N)N)NC(=O)[C@H](CCCNC(=N)N)NC(=O)[C@H](CCCCN)NC(=O)[C@H](CCCCN)NC(=O)[C@H](CCCNC(=N)N)NC(=O)CNC(=O)[C@@H](N)Cc1ccc(O)cc1)C(=O)O` [TAT, YGRKKRRQRRR (SEQ ID NO: 7), reference compound]?
CC50 (in vitro [2]): > 400 mg/L; IC50 (H7N7) (A(H7N7) virus [4]): >50.0 mg/L; CC50 (in vitro [5]): > 400 mg/L; IC50 (H1N1) (A(H1N1)pdm09 virus [7]): >50.0 mg/L

Which HA-mediated membrane fusion [1] does the source give for `CC[C@H](C)[C@H](NC(=O)[C@H](CCC(N)=O)NC(=O)[C@H](CCCNC(=N)N)NC(=O)[C@H](Cc1ccccc1)NC(=O)[C@H](C)NC(=O)[C@@H](NC(=O)[C@@H]1CCCN1C(=O)[C@H](CS)NC(=O)[C@@H]1CCCN1C(=O)CNC(=O)[C@H](Cc1c[nH]c2ccccc12)NC(=O)[C@H](CS)NC(=O)[C@H](CCCNC(=N)N)NC(=O)[C@H](CCCNC(=N)N)NC(=O)[C@H](CCCNC(=N)N)NC(=O)[C@H](CCC(N)=O)NC(=O)[C@H](CCCNC(=N)N)NC(=O)[C@H](CCCNC(=N)N)NC(=O)[C@H](CCCCN)NC(=O)[C@H](CCCCN)NC(=O)[C@H](CCCNC(=N)N)NC(=O)CNC(=O)[C@@H](N)Cc1ccc(O)cc1)[C@@H](C)O)C(=O)NCC(=O)N[C@@H](CC(N)=O)C(=O)N[C@@H](CS)C(=O)NCC(=O)N[C@@H](CCCNC(=N)N)C(=O)N[C@@H](Cc1ccccc1)C(=O)N[C@@H](CCCNC(=N)N)C(=O)N[C@H](C(=O)N[C@@H](CCCNC(=N)N)C(=O)N[C@@H](CS)C(=O)N[C@@H](CS)C(=O)N[C@@H](CCCNC(=N)N)C(=O)N[C@H](C(=O)N[C@@H](CCCNC(=N)N)C(=O)O)[C@@H](C)CC)C(C)C` [TAT-P1] (H-YGRKKRRQRRRCWGPCPTAFRQIGNCGRFRVRCCRIR-OH) here?
Its HA-mediated membrane fusion is “did not inhibit HA-mediated membrane fusion”.

And the CC50 (in vitro [2])?
The CC50 was 226 mg/L (≈ 49.1 µM).

And the “viral RNP release into the nuclei” value (A(H1N1)pdm09 virus [3])?
Its value is “blocked viral RNP release into the nuclei”.

What about the survival (A(H7N7) virus [8]) of the same compound?
Its survival is 30%.

And the CC50 (in vitro [5])?
The CC50 was 300 mg/L (≈ 65.2 µM).

And the “viral replication in 293T cells (viral titers by plaque assay)” value (H7N7 virus)?
Its value is “could significantly inhibit viral replication”.

What about the endosomal acidification [6, 11] of the same compound?
Its endosomal acidification is “prevented endosomal acidification”.

What does the source list for `CC[C@H](C)[C@H](NC(=O)[C@H](CCCNC(=N)N)NC(=O)[C@H](CS)NC(=O)[C@H](CS)NC(=O)[C@H](CCCNC(=N)N)NC(=O)[C@@H](NC(=O)[C@H](CCCNC(=N)N)NC(=O)[C@H](Cc1ccccc1)NC(=O)[C@H](CCCNC(=N)N)NC(=O)CNC(=O)[C@H](CS)NC(=O)[C@H](CC(N)=O)NC(=O)[C@H](CCCNC(=N)N)NC(=O)[C@H](CCCCN)NC(=O)[C@H](CCCNC(=N)N)NC(=O)[C@H](Cc1ccccc1)NC(=O)[C@H](C)NC(=O)[C@H](CCCNC(=N)N)NC(=O)[C@@H]1CCCN1C(=O)[C@H](CS)NC(=O)[C@@H]1CCCN1C(=O)[C@H](CCCNC(=N)N)NC(=O)[C@H](Cc1c[nH]c2ccccc12)NC(=O)[C@H](CS)NC(=O)[C@H](CCCNC(=N)N)NC(=O)[C@H](CCCNC(=N)N)NC(=O)[C@H](CCCNC(=N)N)NC(=O)[C@H](CCC(N)=O)NC(=O)[C@H](CCCNC(=N)N)NC(=O)[C@H](CCCNC(=N)N)NC(=O)[C@H](CCCCN)NC(=O)[C@H](CCCCN)NC(=O)[C@H](CCCNC(=N)N)NC(=O)CNC(=O)[C@@H](N)Cc1ccc(O)cc1)[C@@H](C)CC)C(=O)N[C@@H](CCCNC(=N)N)C(=O)O` [TAT-P2] (H-YGRKKRRQRRRCWRPCPRAFRKRNCGRFRIRCCRIR-OH; N-terminus and C-terminus assumed)?
CC50 (in vitro [2]): 154 mg/L (≈ 32.4 µM); CC50 (in vitro [5]): 160 mg/L (≈ 33.7 µM)

Which CC50 (in vitro [2]) does the source give for `CC[C@H](C)[C@H](NC(=O)[C@H](CCCNC(=N)N)NC(=O)[C@H](CS)NC(=O)[C@H](CCCNC(=N)N)NC(=O)[C@@H](NC(=O)[C@H](CCCNC(=N)N)NC(=O)[C@H](Cc1ccccc1)NC(=O)[C@H](CCCNC(=N)N)NC(=O)CNC(=O)[C@H](CS)NC(=O)[C@H](CC(C)C)NC(=O)[C@H](CCC(N)=O)NC(=O)[C@H](CCCNC(=N)N)NC(=O)[C@H](Cc1ccccc1)NC(=O)[C@H](CO)NC(=O)[C@@H]1CCCN1C(=O)[C@H](CS)NC(=O)[C@@H]1CCCN1C(=O)[C@H](CCCNC(=N)N)NC(=O)[C@H](Cc1c[nH]c2ccccc12)NC(=O)[C@H](CS)NC(=O)[C@H](CCCNC(=N)N)NC(=O)[C@H](CCCNC(=N)N)NC(=O)[C@H](CCCNC(=N)N)NC(=O)[C@H](CCC(N)=O)NC(=O)[C@H](CCCNC(=N)N)NC(=O)[C@H](CCCNC(=N)N)NC(=O)[C@H](CCCCN)NC(=O)[C@H](CCCCN)NC(=O)[C@H](CCCNC(=N)N)NC(=O)CNC(=O)[C@@H](N)Cc1ccc(O)cc1)[C@@H](C)CC)C(=O)N[C@@H](CCCNC(=N)N)C(=O)O` [TAT-P3] (H-YGRKKRRQRRRCWRPCPSFRQLCGRFRIRCRIR-OH; N-terminus and C-terminus assumed) here?
Its CC50 is 205 mg/L (≈ 47.1 µM).

And the CC50 (in vitro [5])?
The CC50 was 207 mg/L (≈ 47.6 µM).

With `CCN(CC)CCCC(C)Nc1ccnc2cc(Cl)ccc12` (stereo not drawn) [chloroquine] as the compound, how does the “effective concentrations for inhibiting endosomal acidification” value (endosomal acidification) read?
The value was about 100 µM.

For `CC(=O)N[C@H]1[C@H]([C@H](O)[C@H](O)CO)OC(C(=O)O)=C[C@@H]1N=C(N)N` [zanamivir], which “viral titers in mouse lungs” value (A(H1N1)pdm09 virus [9]) is on record?
The value was “significantly reduced”.

And the “IL-6 expression in mice” value (A(H1N1)pdm09 virus [9]; mouse)?
The value was “significantly reduced”.

And the body weight loss (A(H1N1)pdm09 virus [9]; mouse)?
The body weight loss was “significantly reduced”.

What about the survival (A(H1N1)pdm09 virus [9]; mouse) of the same compound?
The survival was 90%.

And the body weight loss (A(H7N7) virus [8])?
Its body weight loss is “significantly less body weight loss”.

What about the survival (A(H7N7) virus [8]) of the same compound?
The survival was 40%.

What about the “susceptibility of A(H7N7) virus to zanamivir compared with A(H1N1)pdm09 virus” value [10] of the same compound?
The value was “reduced susceptibility; also recorded: reduced sensitivity of A(H7N7) virus to zanamivir”.

With Bafilomycin A1 [reference compound] as the compound, how does the “effect of added agent on transfection efficiency of TAT-P1/pLuc” value (293T cells) read?
The value was “increased”.

What about the “viral RNP release into the nuclei” value (A(H1N1)pdm09 virus [3]) of the same compound?
Its value is “blocked viral RNP release into the nuclei”.

And the endosomal acidification [6, 11]?
Its endosomal acidification is “prevented endosomal acidification”.

With “NGAICWGPCPTAFRQIG NCGHFKVRCCKIRDED (SEQ ID NO: 9) [PA1, reference compound]” as the compound, how does the “effect of added agent on transfection efficiency of TAT-P1/pLuc” value (293T cells) read?
Its value is “did not improve the transfection efficiency”.

What about the “effect of added peptide on transfection efficiency of TAT-P1/pLuc in mouse lungs” value (mouse lungs) of the same compound?
Its value is “did not improve the transfection efficiency”.

What about the endosomal acidification [6] of the same compound?
Its endosomal acidification is “did not prevent endosomal acidification”.
